# PMC12780140, “Structural basis of sodium ion-dependent carnitine transport by OCTN2” (Nature Communications, 2025)
# Target: T1, OCTN2 (hOCTN2) (Homo sapiens, UniProt O76082, Y211A)
# T1 construct: gene SLC22A5; hOCTN2 mutant expressed in Xenopus laevis oocytes
# T1 sequence (O76082 1-557 Y211A): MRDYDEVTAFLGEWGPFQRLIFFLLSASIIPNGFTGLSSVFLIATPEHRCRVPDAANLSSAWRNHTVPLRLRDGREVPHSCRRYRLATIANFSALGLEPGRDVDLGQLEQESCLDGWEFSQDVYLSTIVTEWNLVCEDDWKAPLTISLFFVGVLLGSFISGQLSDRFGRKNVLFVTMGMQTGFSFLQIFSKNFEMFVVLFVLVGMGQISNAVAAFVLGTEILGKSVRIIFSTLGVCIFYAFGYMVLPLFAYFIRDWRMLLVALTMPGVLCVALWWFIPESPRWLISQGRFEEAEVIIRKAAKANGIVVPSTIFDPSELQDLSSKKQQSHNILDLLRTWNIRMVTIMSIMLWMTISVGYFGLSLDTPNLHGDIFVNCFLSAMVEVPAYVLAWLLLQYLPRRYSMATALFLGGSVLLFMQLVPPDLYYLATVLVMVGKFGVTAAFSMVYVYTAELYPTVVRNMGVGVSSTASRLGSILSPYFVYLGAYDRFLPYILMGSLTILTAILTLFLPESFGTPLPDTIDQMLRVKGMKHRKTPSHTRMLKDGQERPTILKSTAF
# Assay: two-electrode voltage clamp in oocytes, apparent KM (increased versus wildtype)
# Type: cell-based
smiles,measurement,value
C[N+](C)(C)C[C@H](O)CC(=O)[O-] [L-carnitine],"two-electrode voltage clamp in oocytes, apparent KM (increased versus wildtype)",Mutating this residue to an alanine shows a similar increase in carnitine KM as the mutants above (Fig. 2f).
